Data: doi:10.1101/2022.09.03.506457v1 (biorxiv, 2022)

Molecular target: T1, MjFH (MjFHαβ), holo, Fe-S reconstituted (Methanocaldococcus jannaschii, UniProt Q58034+Q58690)
T1 sequence (Q58690 1-285): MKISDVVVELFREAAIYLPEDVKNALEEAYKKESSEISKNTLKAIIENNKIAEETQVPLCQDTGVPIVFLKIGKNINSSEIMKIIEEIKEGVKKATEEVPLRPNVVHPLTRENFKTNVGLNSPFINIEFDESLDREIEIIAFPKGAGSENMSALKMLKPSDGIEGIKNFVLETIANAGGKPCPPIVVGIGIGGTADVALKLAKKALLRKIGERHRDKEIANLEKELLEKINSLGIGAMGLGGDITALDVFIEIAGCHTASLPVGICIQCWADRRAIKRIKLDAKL
T1 sequence (Q58034 1-195): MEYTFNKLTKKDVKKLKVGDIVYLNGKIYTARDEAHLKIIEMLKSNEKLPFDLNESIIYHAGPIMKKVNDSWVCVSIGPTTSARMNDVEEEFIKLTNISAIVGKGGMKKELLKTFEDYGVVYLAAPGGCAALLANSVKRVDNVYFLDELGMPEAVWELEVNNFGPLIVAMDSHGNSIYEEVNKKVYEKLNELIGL
Format: biochemical
Conditions: pH 7.2, 50 mM Tris-HCl, 70 °C

O=C(O)/C=C/C(=O)O [fumarate]
Km: 2790 ± 397 µM
